Test results reported in the CheMixHub viscosity set.
± gives the uncertainty stated by the source.

Assay: xn = mol fraction of the nth substance listed

CCN(CCO)CCO + O
viscosity [mPa·s], 101 kPa
Settings | 303.15 K | 308.15 K | 313.15 K | 318.15 K | 323.15 K
x1 = 0.0478 | 2.433 ± 0.12 | 2.084 ± 0.11 | 1.809 ± 0.11 | 1.585 ± 0.11 | 1.4 ± 0.11
x1 = 0.1002 | 5.975 ± 0.19 | 4.885 ± 0.16 | 4.051 ± 0.14 | 3.403 ± 0.13 | 2.897 ± 0.12
x1 = 0.1411 | 10.13 ± 0.27 | 8.044 ± 0.23 | 6.499 ± 0.19 | 5.322 ± 0.17 | 4.422 ± 0.15
x1 = 0.1933 | 16.59 ± 0.42 | 12.84 ± 0.33 | 10.12 ± 0.27 | 8.088 ± 0.22 | 6.604 ± 0.19
x1 = 0.2959 | 31.21 ± 0.72 | 23.36 ± 0.57 | 17.84 ± 0.43 | 13.84 ± 0.34 | 10.95 ± 0.28
x1 = 0.3944 | 43.07 ± 0.93 | 31.83 ± 0.73 | 24.05 ± 0.55 | 18.38 ± 0.42 | 14.39 ± 0.35
x1 = 0.495 | 51.1 ± 1 | 37.78 ± 0.82 | 28.28 ± 0.61 | 21.56 ± 0.46 | 16.84 ± 0.38
x1 = 0.5912 | 54.81 ± 1 | 40.53 ± 0.84 | 30.44 ± 0.62 | 23.28 ± 0.47 | 18.22 ± 0.38
x1 = 0.7064 | 55.22 ± 0.97 | 40.91 ± 0.78 | 31.03 ± 0.58 | 23.93 ± 0.44 | 18.76 ± 0.37
x1 = 0.8113 | 53.42 ± 0.87 | 39.97 ± 0.71 | 30.47 ± 0.53 | 23.66 ± 0.41 | 18.65 ± 0.34
x1 = 0.8934 | 51.39 ± 0.78 | 38.76 ± 0.65 | 29.74 ± 0.49 | 23.19 ± 0.38 | 18.44 ± 0.31

CCCCCCCCC + CCCCCCC
298.15 K, 101.33 kPa
Settings | viscosity [mPa·s]
x2 = 0.1102 | 0.6128 ± 0.0084
x2 = 0.2046 | 0.5921 ± 0.0081
x2 = 0.3052 | 0.562 ± 0.0078
x2 = 0.407 | 0.5372 ± 0.0075
x2 = 0.5092 | 0.5104 ± 0.0072
x2 = 0.6073 | 0.4838 ± 0.0069
x2 = 0.7071 | 0.4588 ± 0.0066
x2 = 0.8027 | 0.4312 ± 0.0063
x2 = 0.8996 | 0.4081 ± 0.0061

C1COCO1 + CCC(C)O
viscosity [mPa·s]
Settings | 298.15 K | 303.15 K | 313.15 K
101 kPa, x1 = 0.1001 | – | 1.516 ± 0.022 | –
101 kPa, x1 = 0.2001 | – | 1.181 ± 0.021 | –
101 kPa, x1 = 0.3001 | – | 0.9354 ± 0.021 | –
101 kPa, x1 = 0.4001 | – | 0.812 ± 0.021 | –
101 kPa, x1 = 0.5001 | – | 0.7072 ± 0.021 | –
101 kPa, x1 = 0.6001 | – | 0.6589 ± 0.02 | –
101 kPa, x1 = 0.7001 | – | 0.612 ± 0.02 | –
101 kPa, x1 = 0.8001 | – | 0.5894 ± 0.02 | –
101 kPa, x1 = 0.9001 | – | 0.5588 ± 0.02 | –
101.33 kPa, x1 = 0.0987 | 1.997 ± 0.024 | – | 1.29 ± 0.015
101.33 kPa, x1 = 0.1966 | 1.454 ± 0.017 | – | 1.016 ± 0.012
101.33 kPa, x1 = 0.2957 | 1.149 ± 0.014 | – | 0.8449 ± 0.01
101.33 kPa, x1 = 0.3994 | 0.9497 ± 0.011 | – | 0.7262 ± 0.0088
101.33 kPa, x1 = 0.5008 | 0.8242 ± 0.01 | – | 0.6486 ± 0.0079
101.33 kPa, x1 = 0.6023 | 0.7412 ± 0.009 | – | 0.593 ± 0.0073
101.33 kPa, x1 = 0.699 | 0.6698 ± 0.0082 | – | 0.55 ± 0.0068
101.33 kPa, x1 = 0.8014 | 0.6265 ± 0.0077 | – | 0.5218 ± 0.0065
101.33 kPa, x1 = 0.9023 | 0.5997 ± 0.0074 | – | 0.5052 ± 0.0063
